Laboratory results published in ChEMBL document CHEMBL1201862, “PubChem BioAssay data set” (2004).
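1) Cells in 96-well plates. 2) Compound, 48 h, 5 concentrations. 3) Linear interpolation between surrounding doses. 4) Unreached endpoint = highest concentration. GI50 = concentration required for 50% inhibition of growth.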 Calls of active or inactive are those of the source. No stated cut-off is given here; in the data, active = GI50 up to about 1.1 µM and inactive = higher.

Assays:
Experiment in all cases: inhibition of tumour cell growth, NCI panel, 48 h
786-0 = tested on: 786-0
A549 = tested on: A549
ACHN = tested on: ACHN
CAKI-1 = tested on: CAKI-1
CCRF-CEM = tested on: CCRF-CEM
COLO 205 = tested on: COLO 205
DLD-1 = tested on: DLD-1
DMS-114 = tested on: DMS-114
DMS-273 = tested on: DMS-273
HCT-116 = tested on: HCT-116
HCT-15 = tested on: HCT-15
HL-60 = tested on: HL-60
HOP-18 = tested on: HOP-18
HOP-62 = tested on: HOP-62
HOP-92 = tested on: HOP-92
HT-29 = tested on: HT-29
IGROV-1 = tested on: IGROV-1
K562 = tested on: K562
KM-20L2 = tested on: KM-20L2
KM12 = tested on: KM12
LOX IMVI = tested on: LOX IMVI
LXFL 529 = tested on: LXFL 529
M14 = tested on: M14
M19-MEL = tested on: M19-MEL
MOLT-4 = tested on: MOLT-4
Malme-3M = tested on: Malme-3M
NCI-H226 = tested on: NCI-H226
NCI-H23 = tested on: NCI-H23
NCI-H460 = tested on: NCI-H460
NCI-H522 = tested on: NCI-H522
OVCAR-3 = tested on: OVCAR-3
OVCAR-4 = tested on: OVCAR-4
OVCAR-5 = tested on: OVCAR-5
OVCAR-8 = tested on: OVCAR-8
RPMI-8226 = tested on: RPMI-8226
RXF 393 = tested on: RXF 393
SF-268 = tested on: SF-268
SF-295 = tested on: SF-295
SF-539 = tested on: SF-539
SK-MEL-28 = tested on: SK-MEL-28
SK-MEL-2 = tested on: SK-MEL-2
SK-MEL-5 = tested on: SK-MEL-5
SK-OV-3 = tested on: SK-OV-3
SN12C = tested on: SN12C
SNB-75 = tested on: SNB-75
SNB-78 = tested on: SNB-78
SR = tested on: SR
SW-620 = tested on: SW-620
TK-10 = tested on: TK-10
U-251 = tested on: U-251
UACC-257 = tested on: UACC-257
UACC-62 = tested on: UACC-62
UO-31 = tested on: UO-31
A498 = tested on: A498
EKVX = tested on: EKVX
HCC 2998 = tested on: HCC 2998
SNB-19 = tested on: SNB-19

`Cc1cc(O)nc(NNC(C#N)c2c(O)ccc3ccccc23)n1` (stereo not drawn) was tested, and the GI50 (786-0) was 3.52 µM (inactive), the GI50 (A549) was 2.9 µM (inactive) and the GI50 (ACHN) was 1.8 µM (inactive). The GI50 (CAKI-1) was 3.18 µM (inactive), the GI50 (CCRF-CEM) was 1.73 µM (inactive) and the GI50 (COLO 205) was 22.4 µM (inactive). The GI50 (DLD-1) was 3.42 µM (inactive), the GI50 (DMS-114) was 2.87 µM (inactive) and the GI50 (DMS-273) was 3.87 µM (inactive). For the same molecule, the GI50 (HCT-116) was 2.43 µM (inactive), the GI50 (HCT-15) was 1.82 µM and the GI50 (HL-60) was 0.966 µM (active). For the same molecule, the GI50 (HOP-18) was 4.49 µM (inactive), the GI50 (HOP-62) was 6.5 µM (inactive) and the GI50 (HOP-92) was 19.1 µM (inactive). The GI50 (HT-29) was 17.3 µM (inactive), the GI50 (IGROV-1) was 3.4 µM (inactive) and the GI50 (K562) was 3.68 µM (inactive). The GI50 (KM-20L2) was 24.8 µM (inactive), the GI50 (KM12) was 4.29 µM (inactive) and the GI50 (LOX IMVI) was 4.08 µM (inactive). For the same molecule, the GI50 (LXFL 529) was 8.79 µM (inactive), the GI50 (M14) was 2.51 µM (inactive) and the GI50 (M19-MEL) was 4.68 µM (inactive). For the same molecule, the GI50 (MOLT-4) was 2.34 µM (inactive), the GI50 (Malme-3M) was 7.55 µM (inactive) and the GI50 (NCI-H226) was 4.14 µM (inactive). The GI50 (NCI-H23) was 3.56 µM (inactive), the GI50 (NCI-H460) was 2.89 µM (inactive) and the GI50 (NCI-H522) was 8.89 µM (inactive). The GI50 (OVCAR-3) was 1.78 µM (inactive), the GI50 (OVCAR-4) was 3.32 µM (inactive) and the GI50 (OVCAR-5) was 16.7 µM (inactive). For the same molecule, the GI50 (OVCAR-8) was 3.1 µM (inactive), the GI50 (RPMI-8226) was 3.72 µM (inactive) and the GI50 (RXF 393) was 10.4 µM (inactive). For the same molecule, the GI50 (SF-268) was 2.28 µM (inactive), the GI50 (SF-295) was 4.74 µM (inactive) and the GI50 (SF-539) was 3.85 µM (inactive). For the same molecule, the GI50 (SK-MEL-28) was 5.18 µM (inactive), the GI50 (SK-MEL-2) was 12.2 µM (inactive) and the GI50 (SK-MEL-5) was 2.99 µM (inactive). For the same molecule, the GI50 (SK-OV-3) was 7.08 µM (inactive), the GI50 (SN12C) was 3.18 µM (inactive) and the GI50 (SNB-75) was 15 µM (inactive). For the same molecule, the GI50 (SNB-78) was 19.3 µM (inactive), the GI50 (SR) was 2.7 µM (inactive) and the GI50 (SW-620) was 4.56 µM (inactive). The GI50 (TK-10) was 9.06 µM (inactive), the GI50 (U-251) was 2.91 µM (inactive) and the GI50 (UACC-257) was 3.64 µM (inactive). For the same molecule, the GI50 (UACC-62) was 2.87 µM (inactive) and the GI50 (UO-31) was 1.73 µM (inactive).
For `CC1(C)NC(=O)N(CCCCCCN2C(=O)NC(C)(C)C2=O)C1=O`, the GI50 (786-0) was > 100 µM (inactive), the GI50 (A498) was > 100 µM (inactive) and the GI50 (A549) was > 100 µM (inactive). The GI50 (ACHN) was > 100 µM (inactive), the GI50 (CAKI-1) was > 100 µM (inactive) and the GI50 (CCRF-CEM) was > 100 µM (inactive). The GI50 (COLO 205) was > 100 µM (inactive), the GI50 (DLD-1) was > 100 µM (inactive) and the GI50 (DMS-114) was > 100 µM (inactive). For the same molecule, the GI50 (DMS-273) was > 100 µM (inactive), the GI50 (EKVX) was > 100 µM (inactive) and the GI50 (HCC 2998) was > 100 µM (inactive). The GI50 (HCT-116) was > 100 µM (inactive), the GI50 (HCT-15) was > 100 µM and the GI50 (HOP-18) was > 100 µM (inactive). The GI50 (HOP-92) was > 100 µM (inactive), the GI50 (HT-29) was > 100 µM (inactive) and the GI50 (IGROV-1) was > 100 µM (inactive). For the same molecule, the GI50 (K562) was > 100 µM (inactive), the GI50 (KM-20L2) was > 100 µM (inactive) and the GI50 (KM12) was > 100 µM (inactive). For the same molecule, the GI50 (LOX IMVI) was > 100 µM (inactive), the GI50 (LXFL 529) was > 100 µM (inactive) and the GI50 (M14) was > 100 µM (inactive). The GI50 (M19-MEL) was > 100 µM (inactive), the GI50 (MOLT-4) was > 100 µM (inactive) and the GI50 (Malme-3M) was > 100 µM (inactive). For the same molecule, the GI50 (NCI-H226) was > 100 µM (inactive), the GI50 (NCI-H23) was > 100 µM (inactive) and the GI50 (NCI-H460) was > 100 µM (inactive). For the same molecule, the GI50 (NCI-H522) was > 100 µM (inactive), the GI50 (OVCAR-4) was > 100 µM (inactive) and the GI50 (OVCAR-5) was > 100 µM (inactive). The GI50 (OVCAR-8) was > 100 µM (inactive), the GI50 (RPMI-8226) was > 100 µM (inactive) and the GI50 (RXF 393) was > 100 µM (inactive). The GI50 (SF-268) was > 100 µM (inactive), the GI50 (SK-MEL-28) was > 100 µM (inactive) and the GI50 (SK-MEL-2) was > 100 µM (inactive). For the same molecule, the GI50 (SK-OV-3) was > 100 µM (inactive), the GI50 (SN12C) was > 100 µM (inactive) and the GI50 (SNB-19) was 97.9 µM (inactive). For the same molecule, the GI50 (SNB-75) was > 100 µM (inactive), the GI50 (SNB-78) was > 100 µM (inactive) and the GI50 (SW-620) was > 100 µM (inactive). The GI50 (TK-10) was > 100 µM (inactive), the GI50 (U-251) was > 100 µM (inactive) and the GI50 (UACC-257) was > 100 µM (inactive). For the same molecule, the GI50 (UACC-62) was > 100 µM (inactive) and the GI50 (UO-31) was > 100 µM (inactive).
